Activity calls are given as the source filed them.

One experiment addresses T1, Interleukin-8 (Homo sapiens, UniProt P10145).
T1 sequence (P10145 whole entry): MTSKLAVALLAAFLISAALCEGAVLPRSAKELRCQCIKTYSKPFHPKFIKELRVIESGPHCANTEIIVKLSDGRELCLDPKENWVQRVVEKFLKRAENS
Description: Dose Response confirmation of uHTS small molecule hits for cystic fibrosis induced NFkb Inhibitors in a PAF-induced IL8 counterscreen. Format: functional. The settings on record: read-out: IC50_Mean. For orientation: The purpose of a counterscreen is to sort out artefacts and off-target activity.

The nature of experiment [1]: reduced cellular PGC1a acetyl-lysine signal – cell-based, cherry-picked samples, dose response (AID 720514).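 Note: potency may reflect raised or lowered acetylation signal.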 Format: functional.
The target of experiment [2] is Ras and Rab interactor 1/Tyrosine-protein kinase ABL1 (Homo sapiens, UniProt P00519+Q13671). The format is functional.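 Note: biochemical TR-FRET dose-response test measuring inhibition of binding between Rin1 and Abl proteins.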
The next experiment deals with T2, Cysteine protease ATG4B (Homo sapiens, UniProt Q9Y4P1).
T2 sequence (Q9Y4P1 whole entry): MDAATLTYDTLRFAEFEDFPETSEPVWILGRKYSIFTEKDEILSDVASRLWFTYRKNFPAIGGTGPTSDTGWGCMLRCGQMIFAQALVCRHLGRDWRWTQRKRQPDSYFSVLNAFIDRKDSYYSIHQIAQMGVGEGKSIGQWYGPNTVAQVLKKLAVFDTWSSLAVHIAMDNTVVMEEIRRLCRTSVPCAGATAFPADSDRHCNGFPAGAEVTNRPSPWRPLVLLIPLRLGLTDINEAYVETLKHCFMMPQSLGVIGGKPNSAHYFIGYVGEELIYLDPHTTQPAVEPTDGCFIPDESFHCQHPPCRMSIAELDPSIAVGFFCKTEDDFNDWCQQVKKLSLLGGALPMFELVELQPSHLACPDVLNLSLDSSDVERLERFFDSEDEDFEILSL
Format: functional.

The target of another experiment is Phospholipase A2 (Homo sapiens, UniProt P04054). The format is functional.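 Note: confirmatory dose-response counterscreen on phospholipase A2, testing hits that came from an ultra-high-throughput screen for ATG4B inhibitors.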
Experiment [3] concerns the target T3, High affinity choline transporter 1 (Homo sapiens, UniProt Q9GZV3).
T3 sequence (Q9GZV3 whole entry): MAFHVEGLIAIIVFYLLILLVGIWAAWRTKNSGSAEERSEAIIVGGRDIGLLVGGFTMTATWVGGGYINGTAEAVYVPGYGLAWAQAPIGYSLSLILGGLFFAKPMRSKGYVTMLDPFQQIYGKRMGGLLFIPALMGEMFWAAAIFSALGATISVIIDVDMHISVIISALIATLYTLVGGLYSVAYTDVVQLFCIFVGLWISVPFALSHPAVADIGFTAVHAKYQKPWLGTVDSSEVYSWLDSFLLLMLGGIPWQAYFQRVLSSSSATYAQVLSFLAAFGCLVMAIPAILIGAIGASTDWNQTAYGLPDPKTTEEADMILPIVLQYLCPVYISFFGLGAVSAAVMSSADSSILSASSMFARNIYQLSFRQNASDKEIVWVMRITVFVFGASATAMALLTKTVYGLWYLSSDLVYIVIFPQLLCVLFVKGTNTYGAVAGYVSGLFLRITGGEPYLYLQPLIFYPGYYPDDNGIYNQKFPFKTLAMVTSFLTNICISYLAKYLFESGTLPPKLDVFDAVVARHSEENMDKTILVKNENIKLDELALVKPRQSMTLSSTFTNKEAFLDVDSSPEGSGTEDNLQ
Briefly: human choline transporter blockers, potency – cell-based, 5-point CRC, membrane potential dye, dose response (AID 504840). The format is functional.

For experiment [4], the target named is T3, High affinity choline transporter 1. Briefly: human choline transporter blockers, potency – cell-based, 10-point CRC, membrane potential dye, dose response (AID 588401).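 Note: membrane potential dye fluorescence of choline-evoked depolarization via CHT.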 The format is functional.
Experiment [5] can be described thus: activation of miR-122 Renilla sensor silencing – cell-based, Huh7 psiCHECK-miR122, Renilla luciferase, cherry-picked, dose response (AID 651956).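 Note: huh7 hepatoma cells stably carrying a psiCHECK-2 miR-122 sensor plasmid; renilla luciferase signal reporting endogenous miR-122 activity after 48 h compound exposure.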 Format: functional.
For experiment [6], the target named is T4, Fatty acid synthase (Homo sapiens, UniProt P49327). Briefly: inhibition of human FAS-TE enzyme activity – biochemical, endpoint fluorescence intensity, uHTS hits, dose response (AID 624327).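 Note: fluorescence from hydrolysis of an O-methyl fluorescein acyl ester substrate by the enzyme.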 The format is functional.
Experiment [7] addresses T4, Fatty acid synthase. Briefly: inhibition of human FAS-TE enzyme activity – biochemical, kinetic fluorescence intensity, dose response (AID 624326).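 Note: rate of fluorescence rise from hydrolysis of a fluorogenic O-methyl fluorescein ester substrate.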 Format: functional.
For experiment [8], the target named is 5-hydroxytryptamine receptor 2A (Mus musculus, UniProt P35363). The format is functional, cell-based.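 Note: CHO-K1 cells with tagged receptor and beta-arrestin; agonist potency measured as compound-induced activation of the receptor.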
The target in the next experiment is Mu-type opioid receptor (Homo sapiens, UniProt P35372). Format: functional, cell-based.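 Note: U2OS cells with beta-arrestin recruitment to OPRM1 by beta-gal complementation.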
Chain of Mu-type opioid receptor (P35372 whole entry): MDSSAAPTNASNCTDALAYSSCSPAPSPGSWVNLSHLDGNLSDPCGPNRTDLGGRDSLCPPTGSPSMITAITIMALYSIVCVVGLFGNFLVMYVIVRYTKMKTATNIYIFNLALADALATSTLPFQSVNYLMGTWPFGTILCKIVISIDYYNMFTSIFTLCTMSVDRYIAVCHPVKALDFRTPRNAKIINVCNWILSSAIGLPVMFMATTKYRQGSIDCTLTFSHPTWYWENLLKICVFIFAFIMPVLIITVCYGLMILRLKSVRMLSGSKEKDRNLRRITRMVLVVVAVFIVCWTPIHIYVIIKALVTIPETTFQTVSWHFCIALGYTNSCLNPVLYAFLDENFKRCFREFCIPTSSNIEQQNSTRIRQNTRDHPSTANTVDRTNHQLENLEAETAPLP

Chain of Phospholipase A2 (P04054 whole entry): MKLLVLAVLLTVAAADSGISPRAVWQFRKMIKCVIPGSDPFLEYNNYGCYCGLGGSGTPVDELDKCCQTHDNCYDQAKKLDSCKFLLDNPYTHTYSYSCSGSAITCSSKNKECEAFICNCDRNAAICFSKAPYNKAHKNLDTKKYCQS
T4 sequence (P49327 whole entry): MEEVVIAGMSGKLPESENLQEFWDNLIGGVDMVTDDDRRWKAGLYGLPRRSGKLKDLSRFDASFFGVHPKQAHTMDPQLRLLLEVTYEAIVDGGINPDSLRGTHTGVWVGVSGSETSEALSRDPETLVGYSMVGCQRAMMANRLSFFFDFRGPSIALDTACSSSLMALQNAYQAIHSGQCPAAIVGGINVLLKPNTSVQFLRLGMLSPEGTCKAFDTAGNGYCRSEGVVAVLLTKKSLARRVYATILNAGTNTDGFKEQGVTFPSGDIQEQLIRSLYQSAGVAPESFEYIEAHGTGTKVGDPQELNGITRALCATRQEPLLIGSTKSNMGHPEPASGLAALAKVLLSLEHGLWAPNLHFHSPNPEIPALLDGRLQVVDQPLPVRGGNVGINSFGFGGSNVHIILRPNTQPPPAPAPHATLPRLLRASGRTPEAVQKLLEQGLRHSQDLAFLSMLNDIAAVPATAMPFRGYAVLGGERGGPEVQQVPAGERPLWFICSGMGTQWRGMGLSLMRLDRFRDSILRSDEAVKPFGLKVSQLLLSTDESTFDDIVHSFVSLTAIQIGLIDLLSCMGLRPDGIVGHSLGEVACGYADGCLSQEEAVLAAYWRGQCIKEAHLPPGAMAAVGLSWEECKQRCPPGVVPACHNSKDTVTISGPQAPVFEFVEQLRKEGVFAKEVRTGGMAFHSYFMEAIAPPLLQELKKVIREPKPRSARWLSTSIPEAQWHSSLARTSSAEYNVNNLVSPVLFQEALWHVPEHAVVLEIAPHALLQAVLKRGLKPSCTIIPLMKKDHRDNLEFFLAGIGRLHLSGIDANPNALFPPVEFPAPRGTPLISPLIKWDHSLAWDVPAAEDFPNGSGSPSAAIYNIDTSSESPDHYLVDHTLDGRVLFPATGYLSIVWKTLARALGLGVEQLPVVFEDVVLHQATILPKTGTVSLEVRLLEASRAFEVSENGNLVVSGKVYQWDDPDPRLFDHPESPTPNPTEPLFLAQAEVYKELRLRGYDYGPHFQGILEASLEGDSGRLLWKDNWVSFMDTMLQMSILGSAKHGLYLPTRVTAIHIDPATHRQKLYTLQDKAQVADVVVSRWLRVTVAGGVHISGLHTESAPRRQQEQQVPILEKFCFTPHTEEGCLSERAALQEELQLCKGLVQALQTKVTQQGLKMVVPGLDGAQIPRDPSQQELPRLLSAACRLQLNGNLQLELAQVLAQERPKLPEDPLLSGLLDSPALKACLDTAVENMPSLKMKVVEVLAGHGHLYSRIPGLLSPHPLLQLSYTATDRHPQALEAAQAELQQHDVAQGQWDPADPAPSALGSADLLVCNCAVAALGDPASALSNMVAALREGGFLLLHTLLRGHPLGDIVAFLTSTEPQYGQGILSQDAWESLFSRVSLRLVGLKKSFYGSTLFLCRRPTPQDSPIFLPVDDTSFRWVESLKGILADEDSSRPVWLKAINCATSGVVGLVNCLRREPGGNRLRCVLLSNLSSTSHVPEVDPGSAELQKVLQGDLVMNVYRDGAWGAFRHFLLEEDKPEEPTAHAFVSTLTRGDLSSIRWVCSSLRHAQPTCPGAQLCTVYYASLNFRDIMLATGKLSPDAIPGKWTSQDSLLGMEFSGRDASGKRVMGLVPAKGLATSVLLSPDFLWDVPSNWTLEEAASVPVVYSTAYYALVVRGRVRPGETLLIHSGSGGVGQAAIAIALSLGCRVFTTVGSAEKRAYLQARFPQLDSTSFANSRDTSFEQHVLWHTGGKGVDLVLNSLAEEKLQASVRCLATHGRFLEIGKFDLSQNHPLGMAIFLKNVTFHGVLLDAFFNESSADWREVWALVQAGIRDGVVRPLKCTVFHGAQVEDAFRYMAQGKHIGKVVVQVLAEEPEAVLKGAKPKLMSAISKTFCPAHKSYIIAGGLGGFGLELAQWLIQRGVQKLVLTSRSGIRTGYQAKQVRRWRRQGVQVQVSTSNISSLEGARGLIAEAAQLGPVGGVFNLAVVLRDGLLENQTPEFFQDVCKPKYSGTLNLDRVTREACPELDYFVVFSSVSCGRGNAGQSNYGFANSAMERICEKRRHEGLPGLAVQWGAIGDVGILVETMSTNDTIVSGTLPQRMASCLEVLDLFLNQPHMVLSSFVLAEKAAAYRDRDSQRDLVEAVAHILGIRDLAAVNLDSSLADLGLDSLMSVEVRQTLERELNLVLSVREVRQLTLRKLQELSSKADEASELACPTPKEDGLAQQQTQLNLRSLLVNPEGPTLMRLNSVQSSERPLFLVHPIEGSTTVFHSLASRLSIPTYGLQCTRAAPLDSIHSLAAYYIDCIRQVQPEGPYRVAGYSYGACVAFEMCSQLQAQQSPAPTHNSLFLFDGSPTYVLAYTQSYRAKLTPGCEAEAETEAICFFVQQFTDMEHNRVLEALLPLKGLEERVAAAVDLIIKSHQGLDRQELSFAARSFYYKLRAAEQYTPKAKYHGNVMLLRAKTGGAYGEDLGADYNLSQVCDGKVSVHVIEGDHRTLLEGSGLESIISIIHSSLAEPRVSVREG
Chain of Ras and Rab interactor 1/Tyrosine-protein kinase ABL1 (P00519 whole entry): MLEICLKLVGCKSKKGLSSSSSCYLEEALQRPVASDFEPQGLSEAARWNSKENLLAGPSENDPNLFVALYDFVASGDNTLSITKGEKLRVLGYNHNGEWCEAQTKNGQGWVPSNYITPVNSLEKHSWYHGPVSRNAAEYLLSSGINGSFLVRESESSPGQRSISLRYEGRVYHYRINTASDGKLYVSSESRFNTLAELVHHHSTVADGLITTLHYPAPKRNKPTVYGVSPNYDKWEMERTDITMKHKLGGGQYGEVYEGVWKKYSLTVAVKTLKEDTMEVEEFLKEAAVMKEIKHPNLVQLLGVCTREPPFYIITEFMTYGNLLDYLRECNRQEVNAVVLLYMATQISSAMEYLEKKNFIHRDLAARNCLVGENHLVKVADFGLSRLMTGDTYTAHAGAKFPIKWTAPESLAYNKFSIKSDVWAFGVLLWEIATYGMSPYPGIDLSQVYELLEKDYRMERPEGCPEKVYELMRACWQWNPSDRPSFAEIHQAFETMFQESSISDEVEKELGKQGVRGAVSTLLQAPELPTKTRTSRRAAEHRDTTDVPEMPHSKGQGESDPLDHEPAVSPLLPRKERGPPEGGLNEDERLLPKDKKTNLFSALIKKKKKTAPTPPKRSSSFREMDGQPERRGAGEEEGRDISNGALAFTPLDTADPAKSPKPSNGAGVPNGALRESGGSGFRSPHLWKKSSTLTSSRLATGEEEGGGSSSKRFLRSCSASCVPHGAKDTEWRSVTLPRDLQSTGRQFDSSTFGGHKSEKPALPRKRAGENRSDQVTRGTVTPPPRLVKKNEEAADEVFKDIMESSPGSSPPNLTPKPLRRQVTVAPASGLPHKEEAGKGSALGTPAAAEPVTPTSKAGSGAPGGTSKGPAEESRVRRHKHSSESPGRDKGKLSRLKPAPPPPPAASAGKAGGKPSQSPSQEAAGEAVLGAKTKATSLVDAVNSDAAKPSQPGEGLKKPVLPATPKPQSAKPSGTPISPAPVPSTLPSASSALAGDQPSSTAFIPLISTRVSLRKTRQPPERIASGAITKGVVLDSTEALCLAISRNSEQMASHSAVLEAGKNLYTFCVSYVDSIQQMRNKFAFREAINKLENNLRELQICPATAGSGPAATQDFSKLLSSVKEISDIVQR
Chain of Ras and Rab interactor 1/Tyrosine-protein kinase ABL1 (Q13671 whole entry): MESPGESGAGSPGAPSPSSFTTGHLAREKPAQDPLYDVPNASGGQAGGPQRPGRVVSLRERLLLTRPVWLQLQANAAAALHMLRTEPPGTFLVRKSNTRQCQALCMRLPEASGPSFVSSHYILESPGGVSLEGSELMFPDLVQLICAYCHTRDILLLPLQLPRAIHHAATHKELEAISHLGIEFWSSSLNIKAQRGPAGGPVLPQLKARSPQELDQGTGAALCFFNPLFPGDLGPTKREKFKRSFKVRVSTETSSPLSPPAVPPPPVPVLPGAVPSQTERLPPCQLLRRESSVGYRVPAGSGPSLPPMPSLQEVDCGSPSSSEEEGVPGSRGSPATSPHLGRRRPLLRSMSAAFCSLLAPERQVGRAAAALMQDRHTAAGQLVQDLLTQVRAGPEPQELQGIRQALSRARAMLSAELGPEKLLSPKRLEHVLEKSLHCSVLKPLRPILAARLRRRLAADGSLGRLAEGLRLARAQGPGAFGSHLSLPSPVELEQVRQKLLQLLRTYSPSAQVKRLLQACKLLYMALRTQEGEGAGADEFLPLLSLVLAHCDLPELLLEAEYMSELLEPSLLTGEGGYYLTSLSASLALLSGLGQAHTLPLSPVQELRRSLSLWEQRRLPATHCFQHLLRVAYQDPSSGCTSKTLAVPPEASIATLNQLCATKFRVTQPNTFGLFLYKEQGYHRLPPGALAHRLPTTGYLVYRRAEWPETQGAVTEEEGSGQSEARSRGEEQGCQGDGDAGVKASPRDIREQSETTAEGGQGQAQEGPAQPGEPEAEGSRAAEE

As a reminder, the AC50 is the concentration at which the activity in the assay is half-maximal. Consider `Nc1ncnc(NCc2ccc(F)cc2)c1[N+](=O)[O-]`, for which, on Interleukin-8, the IC50 was > 79 µM (inactive). The half-maximal activity concentration (AC50) in experiment [1] is 3.1 µM (active).

As for `CC[C@]12c3[nH]c4ccc(OC)cc4c3CCN1C(=O)C(CC(=O)NCC13C[C@H]4C[C@@H](C1)C[C@@H](C3)C4)C[C@@H]2C(=O)N1CCN(C(=O)C2CC2)CC1` (stereo partly specified), the IC50 in experiment [2] was 12.9 µM (inactive).

For the molecule `COC(=O)c1c(NC(=O)C2Cc3ccccc3C(=O)O2)sc2c1CCCC2` (stereo unspecified), the IC50 was 1.62 µM (active) at Cysteine protease ATG4B and 1.02 µM (active) at Phospholipase A2.

Take `CC(=O)OC1CC2(C)/C(=N\O)CCC2C2CCc3cc(O)ccc3C12` (stereo unspecified): the figures for the IC50 in experiment [3] and in experiment [4] were 0.953 µM (active) and 0.605 µM (active), respectively.

For the molecule `COc1ccc(C#Cc2ccc3c(c2)O[C@H](CN(C)C(=O)CN2CCOCC2)[C@H](C)CN([C@H](C)CO)S3(=O)=O)cc1`, the AC50 in experiment [5] is 12.3 µM (active).

As to `COc1cc(C(=O)N/N=C/c2coc3ccc(Cl)cc3c2=O)ccc1O`, the IC50 is 3.35 µM (active) at Cysteine protease ATG4B, 18.5 µM (active) at Fatty acid synthase [6], 16.2 µM (active) on Phospholipase A2 and 7.45 µM (active) at Fatty acid synthase [7].

As a reminder, the EC50 is the midpoint of the concentration-response curve. `CNCC(=O)c1ccc(O)c(O)c1` [ADRENALONE]: the results for the EC50 (in experiment [8]; at Mu-type opioid receptor) were 4.04 µM (active) and 92.4 µM (inactive), respectively.

`CCCCC[C@H](O)/C=C/[C@@H]1[C@@H](C/C=C\CCCC(=O)O)[C@@H](O)C[C@H]1O` [DINOPROST TROMETHAMINE]: the IC50 in experiment [3] is 2.94 µM (active); in [4], 2.77 µM (active).

The record behind these values is ChEMBL document CHEMBL1201862, “PubChem BioAssay data set” (2004).
